Experimental findings from patent US9427604B2, “Use of benzyloxy-ethylamine derivatives as a preservative, preservation method, and compositions” (L'OREAL, priority 2009, dated 2016) are described below.

What all share (format): cell-based
Common to all, as to details: 7 days at 22° C.

Test [1] deals with Pseudomonas aeruginosa (Pa) ATCC 19429. Nature of the test: Challenge test (artificial contamination) in aqueous solution, P. aeruginosa. As to the method: (§1) The antimicrobial efficacy of compounds of formula (I) was evaluated via the challenge test or artificial contamination method after having introduced said compounds into water. The method of the challenge test consists of an artificial contamination of the sample with microbial strains from collection (bacteria, yeasts and moulds) and of an evaluation of the number of revivable microorganisms seven days after inoculation. […] 5 pure cultures of microorganisms are used. [table] The strains of gram−bacteria (Escherichia coli and Pseudomonas aeruginosa), gram+bacterium (Enterococcus faecalis), yeast (Candida albicans), and mould (Aspergillus niger) are inoculated into subculturing medium, respectively the day before inoculation for the bacteria and the yeast, and 5 days before inoculation for the mould. On the day of inoculation: • a suspension in tryptone salt diluent is prepared, respectively, for the bacteria and the yeast, so as to obtain by spectrophotometer a suspension with an optical density of between 35% and 45% of transmitted light at 544 nm; • for the mould, the spores are collected by washing the agar with 6 to 7 ml of harvesting solution and the suspension is recovered in a sterile tube or flask. After having homogenized the microbial suspension, 0.2 ml of inoculum (the suspensions are used pure: between 1×10^8 and 3×10^8 CFU per ml) are placed in each pill bottle and the microbial suspension is completely homogenized in the 20 g of product (=aqueous solution containing the compounds of formula (I) at the concentrations indicated) using a spatula. The content of microorganisms present in the product corresponds after homogenization to a concentration of 10^6 microorganisms per gram of product, i.e. inoculation to 1% of an inoculum containing 10^8 microorganisms per ml. After 7 days of contact time between the microorganisms and the product at 22° C.±2° C. and in the dark, ten-fold dilutions are carried out and the number of revivable microorganisms remaining in the product is counted.

Test [2] deals with Candida albicans (Ca) ATCC 10231. The experiment in a line: Challenge test (artificial contamination) in aqueous solution, C. albicans. On the procedure: as §1
In test [3] the test system is Aspergillus niger (An) ATCC 6275. The experiment in a line: Challenge test (artificial contamination) in aqueous solution, A. niger. As to the method: as §1
Test [4] has as its system Escherichia coli (Ec) ATCC 8739. The experiment in a line: Challenge test (artificial contamination) in aqueous solution, E. coli. As to the method: as §1
Test [5] deals with Enterococcus faecalis (Ef) ATCC 33186. The experiment in a line: Challenge test (artificial contamination) in aqueous solution, E. faecalis. As to the method:
as §1

[6] abbreviates: content 0.01% in water, final pH 7, inoculation level 10^6 microorganisms/g.
[7] abbreviates: content 0.05% in water, final pH 7, inoculation level 10^6 microorganisms/g.
Setting [8] is: content 0.1% in water, final pH 7.2, inoculation level 10^6 microorganisms/g.
[9] abbreviates: content 0.25% in water, final pH 6.9, inoculation level 10^6 microorganisms/g.
Setting [10] is: content 0.5% in water, final pH 7.4, inoculation level 10^6 microorganisms/g.
The mark [11] stands for this setting: content 0.75% in water, final pH 7.4, inoculation level 10^6 microorganisms/g.
Where [12] appears, read: content 1% in water, final pH 7.5, inoculation level 10^6 microorganisms/g.
Setting [13] is: content 1% in water, final pH 6.6, inoculation level 10^6 microorganisms/g.

Some results are limits rather than exact numbers.

As to `Cl.NCCOCc1ccccc1` [Compound A], the “No. of CFU/gram of product at T7 days, P. aeruginosa” value (“No. of CFU/gram … P. aeruginosa” for short) is listed as 9.0 × 10^6 CFU/gram of product in test [1] (setting [6]); 1.9 × 10^6 CFU/gram of product in test [1] (setting [7]); 1.5 × 10^5 CFU/gram of product in test [1] (setting [8]); 3.0 × 10^3 CFU/gram of product in test [1] (setting [9]); <200 CFU/gram of product in test [1] (setting [10]); <200 CFU/gram of product in test [1] (setting [11]). Besides, in test [1] (setting [12]), the “No. of CFU/gram … P. aeruginosa” value is <200 CFU/gram of product. The “No. of CFU/gram of product at T7 days, C. albicans” value (from here on “No. of CFU/gram … C. albicans”) in test [2] (setting [6]) is recorded as 3.2 × 10^6 CFU/gram of product; in test [2] (setting [7]), 3.0 × 10^6 CFU/gram of product; in test [2] (setting [8]), 2.8 × 10^6 CFU/gram of product; in test [2] (setting [9]), 2.3 × 10^6 CFU/gram of product; in test [2] (setting [10]), 1.3 × 10^6 CFU/gram of product; in test [2] (setting [11]) it was 5.8 × 10^3 CFU/gram of product. The “No. of CFU/gram … C. albicans” value in test [2] (setting [12]) is <200 CFU/gram of product. Further, the “No. of CFU/gram of product at T7 days, A. niger” value (“No. of CFU/gram … A. niger” below) is given as 1.4 × 10^6 CFU/gram of product in test [3] (setting [6]); 1.3 × 10^6 CFU/gram of product in test [3] (setting [7]); 1.0 × 10^6 CFU/gram of product in test [3] (setting [8]); 1.0 × 10^6 CFU/gram of product in test [3] (setting [9]); 6.2 × 10^5 CFU/gram of product in test [3] (setting [10]); 1.6 × 10^5 CFU/gram of product in test [3] (setting [11]). In addition, in test [3] (setting [12]), the “No. of CFU/gram … A. niger” value is 3.6 × 10^4 CFU/gram of product. Further, the “No. of CFU/gram of product at T7 days, E. coli” value (“No. of CFU/gram … E. coli” below) is given as 7.4 × 10^6 CFU/gram of product in test [4] (setting [6]); 6.2 × 10^6 CFU/gram of product in test [4] (setting [7]); 1.9 × 10^6 CFU/gram of product in test [4] (setting [8]); 2.8 × 10^3 CFU/gram of product in test [4] (setting [9]); <200 CFU/gram of product in test [4] (setting [10]); <200 CFU/gram of product in test [4] (setting [11]). In addition, in test [4] (setting [12]), the “No. of CFU/gram … E. coli” value is <200 CFU/gram of product. Further, the “No. of CFU/gram of product at T7 days, E. faecalis” value (shortened to “No. of CFU/gram … E. faecalis”) was 4.1 × 10^5 CFU/gram of product in test [5] (setting [6]); 3.3 × 10^5 CFU/gram of product in test [5] (setting [7]); 6.9 × 10^4 CFU/gram of product in test [5] (setting [8]); 1.2 × 10^3 CFU/gram of product in test [5] (setting [9]); <200 CFU/gram of product in test [5] (setting [10]); <200 CFU/gram of product in test [5] (setting [11]). In test [5] (setting [12]), the “No. of CFU/gram … E. faecalis” value is recorded as <200 CFU/gram of product.

For `Cl.c1ccc(CNCCOCc2ccccc2)cc1` [Compound B], the “No. of CFU/gram … P. aeruginosa” value in test [1] (setting [13]) is <200 CFU/gram of product. The “No. of CFU/gram … C. albicans” value in test [2] (setting [13]) is on record as <200 CFU/gram of product. For the same compound, the “No. of CFU/gram … A. niger” value in test [3] (setting [13]) is given as <200 CFU/gram of product. For the same compound, the “No. of CFU/gram … E. coli” value in test [4] (setting [13]) is reported as <200 CFU/gram of product. In addition, the “No. of CFU/gram … E. faecalis” value in test [5] (setting [13]) is reported as <200 CFU/gram of product.
